Test results published in the supplement of paper PMC10307832.

Compound: CN(c1ncccc1CNc1nc(Nc2ccc3c(c2)CC(=O)N3)ncc1C(F)(F)F)S(C)(=O)=O
Assay: relative viability (nuclei count vs DMSO), 5 days (fraction); higher = more cells survive
Outline: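 Five library-drug doses spaced by √10 were pinned onto vehicle-anchored 1536-well plates of lung cancer cell lines that had been kept overnight at 37 °C. Cells went 5 days without medium change, then were fixed, permeabilised and Hoechst-stained together, imaged at 4× and counted by MetaXpress. Viability is the ratio of treated-well to vehicle-well nuclei, taken as a median over plates. Plates required control CV below 25% and at least one doubling.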

Cell Line | relative viability (0.01 µM) | relative viability (0.03162 µM) | relative viability (0.1 µM) | relative viability (0.3162 µM) | relative viability (1 µM)
201T | 1.02 | 0.951 | 0.911 | 0.949 | 0.961
A-427 | 1.01 | 1.02 | 0.944 | 1.02 | 1.05
ABC-1 | 0.947 | 0.818 | 0.926 | 0.899 | 0.879
BEN | 1.05 | 1.06 | 1.03 | 1 | 1.02
CAL-12T | 1.03 | 0.979 | 0.914 | 0.865 | 0.849
COR-L23 | 1.01 | 1.1 | 0.981 | 1 | 0.8
COR-L 105 | 1.04 | 0.955 | 0.945 | 0.874 | 0.92
Calu-6 | 1.06 | 0.99 | 0.945 | 0.961 | 0.863
ChaGo-K-1 | 0.963 | 1.08 | 0.948 | 0.96 | 1.02
EKVX | 0.971 | 1.08 | 0.945 | 0.883 | 0.88
EMC-BAC-2 | 1.02 | 0.921 | 0.938 | 0.948 | 0.948
EPLC-272H | 0.948 | 0.955 | 1.01 | 1.18 | 0.875
H3255 | 0.974 | 1.07 | 0.95 | 0.906 | 0.972
HARA | 0.943 | 0.757 | 0.937 | 0.874 | 0.787
HCC-15 | 1.02 | 1.06 | 0.888 | 0.908 | 0.853
HCC-44 | 0.956 | 0.941 | 0.917 | 1 | 0.984
HCC-78 | 0.993 | 1.02 | 0.807 | 0.862 | 0.739
HCC-366 | 0.997 | 1.04 | 1.02 | 1 | 1.02
HCC-827 | 1.05 | 1.08 | 1.04 | 1.01 | 0.989
HOP-62 | 1.07 | 1.08 | 0.99 | 0.979 | 0.98
IA-LM | 0.899 | 1.11 | 0.912 | 0.823 | 0.805
LC-2-ad | 1.01 | 1.01 | 0.966 | 0.883 | 0.967
LCLC-97TM1 | 1 | 1.11 | 0.881 | 0.966 | 0.821
LCLC-103H | 0.964 | 0.966 | 0.877 | 0.919 | 0.958
LK-2 | 1.05 | 1.24 | 1.03 | 1.08 | 1.1
LOU-NH91 | 1.04 | 0.976 | 0.925 | 1.02 | 1.02

Cell Line | relative viability (0.01 µM) | relative viability (0.03162 µM) | relative viability (0.1 µM) | relative viability (0.3162 µM) | relative viability (1 µM)
LU99A | 0.964 | 1.06 | 1.04 | 1.17 | 1.01
LXF-289 | 1.09 | 1.05 | 1.01 | 0.991 | 1.01
NCI-H23 | 1.02 | 0.963 | 1.06 | 1.06 | 0.973
NCI-H322M | 1 | 1.03 | 0.917 | 1.12 | 1.12
NCI-H358 | 0.943 | 0.973 | 0.868 | 0.838 | 0.664
NCI-H441 | 1.09 | 1.15 | 0.901 | 1.22 | 0.767
NCI-H460 | 1 | 1.1 | 0.979 | 1 | 1.02
NCI-H520 | 1.04 | 1.2 | 1.03 | 1.17 | 1.18
NCI-H522 | 0.916 | 0.918 | 0.996 | 1 | 1.02
NCI-H596 | 0.977 | 0.917 | 1.02 | 0.886 | 0.94
NCI-H647 | 0.979 | 1.26 | 1.02 | 0.889 | 0.886
NCI-H650 | 1.03 | 1 | 0.825 | 0.905 | 0.802
NCI-H661 | 1.08 | 1.05 | 0.89 | 0.988 | 0.968
NCI-H727 | 1 | 0.949 | 0.87 | 1.02 | 0.79
NCI-H838 | 1.01 | 1.03 | 0.979 | 0.903 | 0.808
NCI-H1355 | 1.03 | 1.03 | 0.954 | 0.995 | 0.948
NCI-H1395 | 0.94 | 0.977 | 0.812 | 1.01 | 0.988
NCI-H1437 | 0.994 | 1.02 | 0.946 | 0.936 | 0.877
NCI-H1563 | 1 | 0.962 | 0.947 | 0.808 | 0.938
NCI-H1648 | 0.773 | 0.512 | 0.585 | 0.634 | 0.458
NCI-H1650 | 0.924 | 0.961 | 0.947 | 0.904 | 0.886
NCI-H1651 | 1.02 | 1.04 | 1 | 0.982 | 0.963
NCI-H1666 | 1.01 | 0.953 | 0.965 | 0.818 | 0.719
NCI-H1703 | 0.955 | 0.931 | 0.861 | 1.08 | 0.905
NCI-H1734 | 0.985 | 1.04 | 0.947 | 1.02 | 0.953
NCI-H1755 | 1.05 | 1.05 | 0.956 | 0.922 | 0.938

Cell Line | relative viability (0.01 µM) | relative viability (0.03162 µM) | relative viability (0.1 µM) | relative viability (0.3162 µM) | relative viability (1 µM)
NCI-H1792 | 0.925 | 0.983 | 0.888 | 0.975 | 0.992
NCI-H1793 | 0.877 | 1.07 | 0.928 | 0.857 | 0.786
NCI-H1915 | 0.992 | 1 | 0.965 | 0.995 | 0.991
NCI-H1944 | 0.993 | 0.983 | 1 | 1.02 | 1.06
NCI-H1975 | 1.01 | 0.964 | 0.927 | 0.931 | 0.95
NCI-H1993 | 0.855 | 0.99 | 0.855 | 0.925 | 0.821
NCI-H2009 | 1.07 | 1.03 | 0.965 | 0.961 | 0.982
NCI-H2023 | 1.06 | 1.19 | 0.787 | 0.797 | 0.892
NCI-H2085 | 0.989 | 1.04 | 0.947 | 0.948 | 0.9
NCI-H2087 | 1.01 | 1.21 | 0.974 | 1.05 | 1.06
NCI-H2126 | 1 | 1 | 0.911 | 0.964 | 0.872
NCI-H2170 | 0.962 | 1.13 | 1 | 0.965 | 0.981
NCI-H2228 | 1.01 | 1.23 | 1.23 | 1.01 | 0.921
NCI-H2342 | 0.884 | 1.02 | 0.791 | 0.962 | 0.854
NCI-H2347 | 1.09 | 0.942 | 0.978 | 0.877 | 0.829
NCI-H2405 | 1.06 | 0.935 | 0.931 | 0.8 | 0.82
NCI-H3122 | 0.994 | 1.06 | 1.01 | 1.03 | 0.953
PC-3 [JPC-3] | 0.998 | 1.05 | 0.981 | 1.03 | 0.943
PC-14 | 1.09 | 1.09 | 1.05 | 0.982 | 0.963
RERF-LC-KJ | 0.986 | 1.16 | 1.03 | 0.989 | 1.01
SK-LU-1 | 1.04 | 1.15 | 0.993 | 1.02 | 0.908
SK-MES-1 | 1.01 | 1.06 | 0.954 | 0.971 | 0.832
SW 900 | 1.03 | 0.961 | 0.791 | 0.867 | 0.753
SW 1573 | 0.996 | 1.12 | 0.974 | 0.922 | 0.944
UMC-11 | 0.961 | 0.966 | 0.993 | 0.963 | 0.861
